Values of other authors in article PMC8448162, “Single- and Multiple-Ascending-Dose Study of the Safety, Tolerability, and Pharmacokinetics of the Polymyxin Derivative SPR206” (Antimicrobial Agents and Chemotherapy, 2021).

How the values were obtained:
kidney [1] = settings: in vivo; cited from earlier work
kidney [2] = settings: mouse model; cited from earlier work
[3] = tested on: bacterial burden in CFU/g; parameters: method as in earlier work; settings: 20 mg/kg, infection models in mice; cited from earlier work

Row | Substance | incidence of acute kidney injury (kidney [1]) | histopathological changes in the kidney (kidney [2]) | change from baseline in Log10 (bacterial burden in CFU/g) [3] [Log10]
1 | colistin | up to 60% |  | 
2 | polymyxin B [reference compound] |  | all animals | −2.8
